Test results from patent publication US7893199B2, “Peptides having neutrophil-stimulating activity” (National University Corporation Gunma University, priority 2006, dated 2011).
Where no end group is shown, it is not given here.

What was measured:
[1] = test system: differentiated HL-60 cells; experiment: migration activity (Chemotaxis Index) of differentiated HL-60 cells; assay type: cell-based, human
Method: (3) Measurement of Migration Activity
The cells were collected by centrifuging the suspension of the differentiated HL-60 cells (1,000 rpm, 5 minutes, 4° C.). After that, the following operation was repeated three times to wash the cells: 10% FBS-RPMI1640 was added to the cells; the mixture was suspended by inversion; and the mixture was centrifuged again (1,000 rpm, 5 minutes, 4° C.). Then, a medium (10% FBS-RPMI1640) was added so that a cell density was 4×10^6 cells/ml, thereby a cell suspension was prepared. Subsequently, 1 ml of each peptide solution (dissolved in 10% FBS-RPMI 1640) was transferred to each well of a 24-well plate, and the plate was incubated at 37° C. for 20 minutes. After that, 500 μl of the cell suspension (2×10^6 cells) were put in Chemotaxicell (KURABO […] LTD., 3 μm) and the Chemotaxicell was set in a plate, followed by incubation in the presence of 5% CO2 at 37° C. for 1 hour. Then, the Chemotaxicell was removed and the solution in each well of the plate was pipetted. The cells migrated to the plate side was suspended well and the number of the cells were measured. Note that the migration activity by the peptide was represented by a ratio of the number of the cells to the number of the cells passing the Chemotaxicell at the time of non-stimulation (Chemotaxis Index, CI).

[2] = test system: G protein in the differentiated HL-60 cell membrane fraction; experiment: G protein activation ability (GTP hydrolysis) in cell membrane fraction; assay type: biochemical, human
Method: (4) Measurement of G Protein Activation Ability
The cells were collected by centrifuging the suspension of the differentiated HL-60 cells (1,000 rpm, 5 minutes, 4° C.). After that, the following operation was repeated three times to wash the cells: ice-cooled PBS was added to the cells; the mixture was suspended by inversion; and the mixture was centrifuged (1,000 rpm, 5 minutes, 4° C.). Then, the precipitated cells were suspended in a buffer for preparing a cell membrane fraction (20 mM Tris-HCl, 250 mM sucrose, 1.5 mM MgCl2, 3 mM benzamidine hydrochloride monohydrate, 1 μM leupeptin, 1 μM PMSF, 2 μg/ml trypsin inhibitor, pH 7.5) and a cell homogenate was prepared using nitrogen pressing-depressing type cell homogenizing apparatus (nitrogen pressure: 350 psi). After that, the resultant was ultracentrifuged (20,000 g, 4° C., 30 minutes) to remove the supernatant, and the precipitate was suspended in a membrane fraction buffer (20 mM Tris-HCl, 1 mM EDTA, 1 mM DTT, 77.5 mTIU/ml aprotinin, pH 7.5) and used as a cell membrane fraction. After dispensed, the cell membrane fraction was stored at −80° C. The activity of the G protein was quantified using the activity to hydrolyze GTP to GDP as an index. […] The mixture was centrifuged (15,000 rpm, 1 minute, 4° C.), and the radioactivity of the supernatant was measured.

bovine Gi1-G protein = biological target: T1, bovine Gi1-G protein (Bos taurus, UniProt P63097); experiment: G protein activation ability (GTP hydrolysis) with purified Gi1; assay type: biochemical
T1 construct: made in house; host or cells: E. coli
T1 sequence (P63097 whole entry): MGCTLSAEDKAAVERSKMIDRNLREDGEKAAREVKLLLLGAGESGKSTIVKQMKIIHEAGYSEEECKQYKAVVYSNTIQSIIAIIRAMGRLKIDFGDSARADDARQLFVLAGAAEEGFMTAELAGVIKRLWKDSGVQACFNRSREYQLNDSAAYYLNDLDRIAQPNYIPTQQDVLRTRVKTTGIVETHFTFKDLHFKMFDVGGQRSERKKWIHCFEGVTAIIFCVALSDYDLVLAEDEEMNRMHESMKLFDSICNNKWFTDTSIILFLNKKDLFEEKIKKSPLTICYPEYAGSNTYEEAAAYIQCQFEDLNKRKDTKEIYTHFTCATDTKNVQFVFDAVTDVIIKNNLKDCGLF

[3] = biological target: T2, heat shock 70 kDa protein 8 isoform 1 (SEQ ID NO: 52) (Homo sapiens, UniProt P11142); experiment: chemical crosslinking experiment, streptavidin beads, electrophoresis (receptor identification); assay type: binding; settings: differentiated HL-60 cells
T2 construct: endogenous in cells; host or cells: neutrophil-like differentiated HL-60 cells
T2 sequence (P11142 whole entry, canonical isoform): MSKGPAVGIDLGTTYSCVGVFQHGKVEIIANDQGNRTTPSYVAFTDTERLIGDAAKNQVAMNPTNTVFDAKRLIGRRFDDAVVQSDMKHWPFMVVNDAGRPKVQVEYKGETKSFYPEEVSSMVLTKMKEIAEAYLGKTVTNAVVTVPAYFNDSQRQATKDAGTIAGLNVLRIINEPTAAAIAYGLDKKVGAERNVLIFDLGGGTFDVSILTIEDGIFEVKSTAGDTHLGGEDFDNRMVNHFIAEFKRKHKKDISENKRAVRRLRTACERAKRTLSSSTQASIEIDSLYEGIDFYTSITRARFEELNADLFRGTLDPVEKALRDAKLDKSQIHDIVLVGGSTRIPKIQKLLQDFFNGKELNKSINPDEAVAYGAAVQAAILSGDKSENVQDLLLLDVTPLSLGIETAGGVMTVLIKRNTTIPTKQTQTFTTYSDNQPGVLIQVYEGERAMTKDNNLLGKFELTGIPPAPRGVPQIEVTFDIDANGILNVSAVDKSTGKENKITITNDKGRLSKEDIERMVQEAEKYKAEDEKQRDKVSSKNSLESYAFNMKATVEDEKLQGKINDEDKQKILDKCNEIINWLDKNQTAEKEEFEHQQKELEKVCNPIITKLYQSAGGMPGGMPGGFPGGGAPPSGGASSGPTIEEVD
Method: Then, in order to identify directly the receptor molecules to which these functional peptides are bound, the following chemical crosslinking experiment was performed. That is, the HL-60 cells differentiated into the neutrophil-like cells were suspended in HBHS (not containing 0.1% BSA). The suspension was centrifuged (1,000 rpm, 5 minutes, 4° C.) and the supernatant was removed. The cells were suspended again in the HBHS not containing BSA so as to have the cell density of 5.6×10^6 cells/ml. The obtained cell suspension was preincubated at 37° C. for 10 minutes at first, and 1/10 volume of mitocryptide-3 and -5, [Cys^0]mitocryptide-3, [Cys^0]mitocryptide-5, [Cys^24]mitocryptide-3, and peptides obtained by introducing biotin into the N terminals thereof (N-biotinyl-mitocryptide-3, N-biotinyl-mitocryptide-5, N-biotinyl-[Cys^0]mitocryptide-3, N-biotinyl-[Cys^0]mitocryptide-5, and N-biotinyl-[Cys^24]mitocryptide-3) were added to have the final concentration of 10 μM, followed by incubation at 37° C. for 30 minutes. After that, the cell suspension was centrifuged (5,000 rpm, 4° C., 1 minute) and the supernatant was removed. The resultant cells were resuspended in HBHS not containing BSA and centrifuged again to wash the cells. 1 ml of a buffer for dissolving cells (100 mM NaCl, 20 mM Tris-HCl, 1 mM EDTA, 77.5 mTIU/ml aprotinin, 1 μM leupeptin, 1 μg/ml pepstatin A, 1 μg/ml phosphoramidone, 1% CHAPS, pH 7.5) with respect to 1 ml of the original cell suspension was added to the cell precipitate, and the mixture was incubated at 4° C. for 30 minutes to dissolve the cells, thereby a cell lysate was prepared. The cell lysate was centrifuged (15,000 rpm, 4° C., 15 minutes) and the supernatant was centrifuged again in the same condition. The obtained supernatant was incubated with streptavidin beads at 4° C. for 30 minutes, then, the beads were washed by centrifugation with the buffer for dissolving cells three times. Further, the beads were treated by heat at 100° C. for 10 minutes in the buffer for dissolving cells, and the mixture was centrifuged. The obtained supernatant was subjected to an SDS gel electrophoresis to separate the contained protein. Then, the gel was stained by silver stain method, thereby the proteins were analyzed. […] As a result, two specific spots were detected (FIG. 15-A). Therefore, the protein was extracted and degraded with trypsin, and then, the degraded proteins were analyzed by mass spectrometry.

activation of purified Gi1 protein (bovine Gi1-G protein): activated
competition for binding of the protein to N-biotinyl-[Cys^0]mitocryptide-5 [3]: competitive
Sequence: MLWNLLALHQIGQRTISTASHRH [No. 019]
concentration of migration activity compared with that of β-hexosaminidase-secreting activity [1]: confirmed at the concentration lower than the concentration at which β-hexosaminidase-secreting activity was confirmed
desensitization of migration activity with increasing concentration of the peptide [1]: subjected to desensitization completely
activation of G protein [2]: activated
